Experimental data taken from PMC8011784, “Chronic peptide-based GIP receptor inhibition exhibits modest glucose metabolic changes in mice when administered either alone or combined with GLP-1 agonism” (PLoS ONE, 2021).

System: DIO mice
Assay: Chronic GIPA-1 study: fasting blood glucose, plasma insulin and HOMA-IR in DIO mice
Format: in vivo, mouse
Details: 4 h fasted, liraglutide 0.2 mg/kg/day SC, GIPA-1 ~4.5 mg/kg/day minipump, n = 10, vs vehicle
Description: 23-week-old male C57BL/6JRj mice (n = 40), fed a HFD (SSNIFF® diet #12492[60% fat, 20% protein, 20% carbohydrate]) for 14 weeks, were distributed into 4 test groups and received daily either vehicle, liraglutide (0.2 mg/kg/day), GIPA-1 (~4.5 mg/kg/day) or liraglutide + GIPA-1 for 4 weeks while still maintained on HFD. GIPA-1 was delivered using minipumps in order to achieve sufficient GIPR antagonism based on the properties of this peptide (Fig 2A). Liraglutide was dissolved in phosphate-buffered saline (PBS) plus 0.1% bovine serum albumin (BSA) (vehicle 1) and GIPA-1 in DMSO/propylene glycol (50/50 volume per volume) (vehicle 2). […] Fasted (4 hrs) blood glucose and insulin levels were measured on study day -3, 14 and 27. […] Blood glucose was measured before their daily dosing and at 0, 15, 30 60, 120, 180 min after glucose administration. Plasma insulin was measured at 0 and 15 min. Whole body weight and food intake were measured throughout the study period. […]
Fasting blood glucose was measured using a BIOSEN c-Line glucose meter (EKF-Diagnostics), insulin was measured using the Meso Scale Diagnostics platform, TG and TC were measured using commercial kits (Roche Diagnostics) on the Cobas C-501 autoanalyzer (Roche), and FFA levels were measured using a Wako Chemicals kit on the Cobas C-501 autoanalyzer, all according to the manufacturers’ instructions. […]

Question: How did the fasting blood glucose (days 14 and 27) turn out when liraglutide was run?
Answer: significant reductions for the duration of the study

Question: And the fasting plasma insulin?
Answer: reduced in both the liraglutide and combination groups. This was significant for the combination, but not for liraglutide monotherapy
